From patent US7323471B1, “Topical azathioprine for the treatment of oral autoimmune diseases” (DOR Biopharma, Inc., priority 1999, dated 2008)

What was measured:
chronic oral GVHD = assay: Case report: severe chronic oral GVHD refractory to systemic and topical therapies; conditions: when systemic prednisone was increased; tongue ulceration not resolved
Method: They had continuing difficulties with GVHD, including oral involvement.
Oral findings were consistent with pseudomembranous candidiasis, and an ulceration on the left cheek was consistent with minor trauma. […] Acute (grade II) GVHD (skin and liver) was treated with systemic corticosteroids.
Leukoplakia involving the lateral borders of the tongue, consistent with hairy-like leukoplakia, developed. […] Oral changes included findings consistent with GVHD and reactivation of HSV. HSV and candida were confirmed on culture. […] Multiple dilated salivary ducts were visualized on the soft palate. Ulcerations of 3-4 mm in diameter were present on the lateral borders, the dorsum, and the tip of the tongue. […] Biopsy of the ulcer on the cheek was consistent with HSV.
Extensive lichenoid striae with moderate erythema and ulceration involving the lateral tongue on the right and left and the right cheek was seen. A second oral biopsy of lip mucosa and minor salivary glands was completed, which was interpreted as grade II GVHD.
The AZA suspension was made by combining AZA powder with a cherry flavored methylcellulose (1%) suspending vehicle to a final concentration of 5 mg/ml. […]

[1] = system: oral findings due to GVHD
Method: Five other patients suffering from oral findings due to GVHD were treated with oral azathioprine solutions, using the method of the present invention. The patients were treated with 5 ml of a solution of AZA (5 mg/ml), three-four times daily. […] One patient (#5) was treated once with an oral rinse, and subsequently with a combination of an AZA rinse and AZA in a gel (5 mg/ml in a 3% methylcellulose base). The patients were not treated with any systemic immunosuppressant or steroid drug. The progress of each patient was reviewed at the times indicated.

[2] = 50 mg/ml solution, 60 days at 25° C.; cited from earlier work
parodontosis = conditions: topical administration; cited from earlier work
corneal graft rejections = conditions: topical administration; cited from earlier work
aphthous stomatitis = conditions: topical administration; cited from earlier work
[3] = delayed-release oral capsule, improved ileocolonic delivery; cited from earlier work

SMILES	oral symptoms and signs (chronic oral GVHD)	reduction in ulceration ([1]; all but one of the GVHD patients of Table 1)	reduction in pain, all the patients ([1]; all five GVHD patients of Table 1)	estimated global improvement, all the patients ([1]; all five GVHD patients of Table 1, compared to condition prior to treatment) [%]	retained share of the initial concentration [2]	effect in the treatment of parodontosis (parodontosis)	effect in the treatment of corneal graft rejections (corneal graft rejections)	effect in the treatment of aphthous stomatitis (aphthous stomatitis)	systemic bioavailability [3]
C[C@]12C=CC(=O)C=C1CC[C@@H]1[C@@H]2C(=O)C[C@@]2(C)[C@H]1CC[C@]2(O)C(=O)CO [prednisone]	improved								
Cn1cnc([N+](=O)[O-])c1Sc1ncnc2nc[nH]c12 [AZA, azathioprine]		at least 50%	at least 50%	≥ 40	at least 96%	some beneficial effect	ineffective	ineffective	dramatically reduced systemic bioavailability
